Results on 1 compound are retold here after article PMC8524670 (Pharmacology Research & Perspectives, 2021).

For data set [1], the system named is CYP2C9. Put plainly: CYP induction in human hepatocytes. It is filed as in vitro ADME.
A further data set deals with T1, human BCRP (Homo sapiens, UniProt Q9UNQ0).
T1 sequence (Q9UNQ0 1-655): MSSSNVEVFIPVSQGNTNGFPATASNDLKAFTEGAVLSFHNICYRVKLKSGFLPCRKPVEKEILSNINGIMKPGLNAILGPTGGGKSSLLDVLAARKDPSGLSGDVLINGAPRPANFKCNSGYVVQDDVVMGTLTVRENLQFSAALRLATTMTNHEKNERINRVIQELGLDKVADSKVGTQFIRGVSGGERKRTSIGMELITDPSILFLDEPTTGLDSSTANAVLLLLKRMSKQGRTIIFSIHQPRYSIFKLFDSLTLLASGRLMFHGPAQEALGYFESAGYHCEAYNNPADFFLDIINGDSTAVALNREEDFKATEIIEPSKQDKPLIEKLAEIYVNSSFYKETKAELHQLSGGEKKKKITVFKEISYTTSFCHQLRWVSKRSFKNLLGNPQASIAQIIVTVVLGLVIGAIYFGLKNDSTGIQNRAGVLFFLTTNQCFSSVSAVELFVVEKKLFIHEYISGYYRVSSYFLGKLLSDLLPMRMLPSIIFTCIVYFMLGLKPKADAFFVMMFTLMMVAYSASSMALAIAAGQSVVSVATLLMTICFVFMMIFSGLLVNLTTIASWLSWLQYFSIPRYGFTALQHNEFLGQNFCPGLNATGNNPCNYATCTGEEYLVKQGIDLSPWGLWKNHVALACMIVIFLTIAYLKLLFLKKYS
As to the kind of experiment: BCRP inhibition in vesicles. The format is in vitro ADME. The conditions noted are these: 0.05–5 µM.

In the next data set the target is T2, OATP1B1 (Homo sapiens, UniProt Q9Y6L6).
T2 sequence (Q9Y6L6 1-691): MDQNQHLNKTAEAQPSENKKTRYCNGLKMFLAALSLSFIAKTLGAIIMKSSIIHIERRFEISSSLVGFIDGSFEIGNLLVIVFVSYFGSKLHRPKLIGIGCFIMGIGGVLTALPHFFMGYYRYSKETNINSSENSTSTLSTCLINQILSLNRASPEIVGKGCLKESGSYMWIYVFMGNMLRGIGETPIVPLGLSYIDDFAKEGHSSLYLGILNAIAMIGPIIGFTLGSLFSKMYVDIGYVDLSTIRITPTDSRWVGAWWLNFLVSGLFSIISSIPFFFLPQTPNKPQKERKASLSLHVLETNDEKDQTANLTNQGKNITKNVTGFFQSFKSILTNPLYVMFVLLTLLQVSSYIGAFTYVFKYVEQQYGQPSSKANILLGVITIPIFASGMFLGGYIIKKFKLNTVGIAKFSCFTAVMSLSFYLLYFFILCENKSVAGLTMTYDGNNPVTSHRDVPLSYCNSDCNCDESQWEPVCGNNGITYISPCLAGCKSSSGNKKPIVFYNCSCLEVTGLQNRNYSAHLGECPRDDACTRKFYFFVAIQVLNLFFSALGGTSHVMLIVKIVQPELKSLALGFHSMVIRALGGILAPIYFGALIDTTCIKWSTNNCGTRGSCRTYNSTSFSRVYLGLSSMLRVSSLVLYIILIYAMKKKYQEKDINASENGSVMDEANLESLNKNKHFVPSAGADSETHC
Put plainly: SLC transportation assay in HEK293 cells. The format is in vitro ADME. As to conditions: uptake ratios <2 at 0.1, 0.3, 5 µM.

Another data set deals with T3, OCT2 (Homo sapiens, UniProt O15244).
T3 sequence (O15244 1-555): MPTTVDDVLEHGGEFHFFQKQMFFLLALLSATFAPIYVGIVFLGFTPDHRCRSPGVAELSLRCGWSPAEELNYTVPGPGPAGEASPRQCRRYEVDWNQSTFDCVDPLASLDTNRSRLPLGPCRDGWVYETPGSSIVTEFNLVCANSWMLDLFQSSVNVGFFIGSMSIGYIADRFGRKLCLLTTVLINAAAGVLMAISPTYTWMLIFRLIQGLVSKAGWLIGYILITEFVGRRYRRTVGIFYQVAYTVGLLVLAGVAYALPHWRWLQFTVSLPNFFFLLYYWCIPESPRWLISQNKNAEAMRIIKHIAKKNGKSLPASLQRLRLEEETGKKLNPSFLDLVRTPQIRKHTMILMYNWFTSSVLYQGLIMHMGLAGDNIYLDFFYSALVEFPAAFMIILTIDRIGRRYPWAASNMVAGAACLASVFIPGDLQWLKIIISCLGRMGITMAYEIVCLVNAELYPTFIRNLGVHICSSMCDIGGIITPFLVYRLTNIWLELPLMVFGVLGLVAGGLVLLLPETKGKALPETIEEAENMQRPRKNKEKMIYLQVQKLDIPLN
Put plainly: SLC transportation assay in HEK293 cells. It is filed as in vitro ADME. The conditions noted are these: uptake ratios <2 at 0.1, 0.3, 5 µM.

For data set [2] the following is noted: estimated from PBPK modeling; cited from earlier work.
The next data set has as its target T4, OAT1 (Homo sapiens, UniProt Q4U2R8).
T4 sequence (Q4U2R8 1-563): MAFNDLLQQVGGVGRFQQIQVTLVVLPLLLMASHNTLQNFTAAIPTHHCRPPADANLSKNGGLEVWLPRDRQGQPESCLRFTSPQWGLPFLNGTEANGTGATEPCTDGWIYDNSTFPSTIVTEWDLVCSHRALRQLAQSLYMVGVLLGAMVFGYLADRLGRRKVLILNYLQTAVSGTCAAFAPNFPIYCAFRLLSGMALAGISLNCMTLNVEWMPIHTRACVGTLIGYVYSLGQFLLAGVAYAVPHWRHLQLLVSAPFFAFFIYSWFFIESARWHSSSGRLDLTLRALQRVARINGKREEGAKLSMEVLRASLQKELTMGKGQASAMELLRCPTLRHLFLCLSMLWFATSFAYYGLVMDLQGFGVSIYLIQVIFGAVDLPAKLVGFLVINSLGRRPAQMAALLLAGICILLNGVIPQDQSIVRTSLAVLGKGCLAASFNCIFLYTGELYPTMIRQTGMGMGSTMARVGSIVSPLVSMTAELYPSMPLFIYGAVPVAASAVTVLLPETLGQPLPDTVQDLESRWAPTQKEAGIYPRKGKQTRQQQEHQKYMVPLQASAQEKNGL
Put plainly: SLC inhibition assay in HEK293 cells.

The target of data set [3] is CYP2C9 (Homo sapiens, UniProt P11712). As to the kind of experiment: Time-dependent CYP inhibition in HLMs. As to conditions: 10 µM zanubrutinib, 30 min pre-incubation with HLMs and NADPH.
Sequence of CYP2C9 (P11712 whole entry): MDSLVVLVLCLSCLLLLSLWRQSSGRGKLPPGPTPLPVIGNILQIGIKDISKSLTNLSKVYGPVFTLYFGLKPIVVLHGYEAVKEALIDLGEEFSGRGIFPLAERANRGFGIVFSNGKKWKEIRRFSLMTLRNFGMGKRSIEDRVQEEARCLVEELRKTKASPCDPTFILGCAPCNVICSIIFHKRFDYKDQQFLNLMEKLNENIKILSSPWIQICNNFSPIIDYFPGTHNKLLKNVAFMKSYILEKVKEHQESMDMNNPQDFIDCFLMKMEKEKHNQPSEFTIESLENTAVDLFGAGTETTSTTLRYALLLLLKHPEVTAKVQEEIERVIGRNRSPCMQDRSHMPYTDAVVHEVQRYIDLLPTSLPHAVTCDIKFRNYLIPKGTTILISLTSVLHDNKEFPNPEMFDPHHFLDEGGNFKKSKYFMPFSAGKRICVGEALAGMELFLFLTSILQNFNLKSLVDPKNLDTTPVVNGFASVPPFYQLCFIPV
The next data set has as its target rCYP3A4 (Homo sapiens, UniProt P08684). Put plainly: CYP phenotyping with recombinant CYPs. The conditions noted are these: 1 μM, only rCYP3A4 among 7 rCYPs.

Sequence of rCYP3A4 (P08684 whole entry): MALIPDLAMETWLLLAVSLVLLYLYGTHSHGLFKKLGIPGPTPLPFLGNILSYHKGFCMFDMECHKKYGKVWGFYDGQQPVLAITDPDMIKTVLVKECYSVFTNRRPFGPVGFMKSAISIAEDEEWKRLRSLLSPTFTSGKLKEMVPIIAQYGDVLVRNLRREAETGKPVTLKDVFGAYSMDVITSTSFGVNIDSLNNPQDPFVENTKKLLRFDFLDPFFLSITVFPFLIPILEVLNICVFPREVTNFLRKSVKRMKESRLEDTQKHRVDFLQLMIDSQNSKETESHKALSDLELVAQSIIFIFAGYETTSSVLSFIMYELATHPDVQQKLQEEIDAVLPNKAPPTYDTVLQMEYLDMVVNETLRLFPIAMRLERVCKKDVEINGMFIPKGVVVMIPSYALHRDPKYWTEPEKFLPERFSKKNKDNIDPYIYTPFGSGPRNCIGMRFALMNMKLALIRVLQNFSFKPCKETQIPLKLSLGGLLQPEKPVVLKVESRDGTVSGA

For `C=CC(=O)N1CCC([C@@H]2CCNc3c(C(N)=O)c(-c4ccc(Oc5ccccc5)cc4)nn32)CC1` [zanubrutinib], the “R 3” value in the data set with CYP2C9 [1] (DDI basic model value for induction) was […]. Further, in the data set on CYP2C9 [1] (human, cryopreserved human hepatocytes), the EC50 at 3 days stood at […]. Also, the Ch in the data set with CYP2C9 [1] (static model term, induction in liver) was determined as […]. Moreover, the BCRP inhibition entry on human BCRP is “did not inhibit BCRP activity”. Besides, at OATP1B1, the Substrate status result was “unlikely to be a substrate”. For the same compound, the Substrate status result on OCT2 is recorded as “unlikely to be a substrate”. Besides, in data set [2], the “Fg (fraction available after intestinal metabolism)” value is recorded as 0.44. In addition, at OAT1 (0.05–5 µM), the “Inhibition of uptake activity” value is “not inhibited”. Also, at OAT1 (human), the activity at 0.05 µM is […], the activity at 0.2 µM stood at 106 ± 7.8%, the activity at 1 µM turned out to be 109 ± 3.9% and the activity at 5 µM was 109 ± 3.3%. For the same compound, at CYP2C9 [3], the “Percent loss of enzymatic activity” value is 5.86%. In addition, at rCYP3A4, the “Disappearance of zanubrutinib with recombinant CYP” value is reported as “remarkable disappearance”.

For orientation: EC50 means the concentration at which the effect is half-maximal. Lower therefore signals higher potency in that assay.
